Records with an inconclusive call do not appear.

Data on eight molecules can be found in PubChem BioAssay AID194 (DTP/NCI, 2004).

The subject of this assay is BDF1 mice, B16 melanoma s.c., survival/tumor T/C. Kind of assay: NCI In Vivo Anticancer Drug Screen. Data for tumor model B16 Melanoma (subcutaneous) in B6D2F1 (BDF1) mice. The procedure: The antitumor activity of compounds was measured in mice bearing transplantable tumors. Survival or tumor size were measured and the results are expressed as the measurement made in the treated group (T) divided by the measurement made in the vehicle treated control group (C). The tumor model used in this assay is B16 Melanoma (subcutaneous) in B6D2F1 (BDF1) mice

As for `O=NN(CCF)C(=O)NC1CCCCC1`, the T/C by setting is: (endpoint: median survival time, dose: 0.63 mg/kg/injection, schedule: Q01HX012 (ip), vehicle: Klucel (hydroxypropylcellulose) (HPC), higher = longer survival) 123 % of control; (endpoint: median survival time, dose: 1.25 mg/kg/injection, schedule: Q01HX012 (ip), vehicle: Klucel (hydroxypropylcellulose) (HPC), higher = longer survival) 107 % of control; (endpoint: median survival time, dose: 1.25 mg/kg/injection, schedule: Q02HX006 (ip), vehicle: Klucel (hydroxypropylcellulose) (HPC), higher = longer survival) 96 % of control; (endpoint: median survival time, dose: 1.88 mg/kg/injection, schedule: Q03HX004 (ip), vehicle: Klucel (hydroxypropylcellulose) (HPC), higher = longer survival) 96 % of control; (endpoint: median survival time, dose: 2.5 mg/kg/injection, schedule: Q02HX006 (ip), vehicle: Klucel (hydroxypropylcellulose) (HPC), higher = longer survival) 101 % of control; (endpoint: median survival time, dose: 3.11 mg/kg/injection, schedule: Q01DX007 (ip), vehicle: Klucel (hydroxypropylcellulose) (HPC), higher = longer survival) 98 % of control. For the same molecule, the T/C runs as follows: (endpoint: median survival time, dose: 5.0 mg/kg/injection, schedule: Q01HX012 (ip), vehicle: Klucel (hydroxypropylcellulose) (HPC), higher = longer survival) 242 % of control; (endpoint: median survival time, dose: 5.0 mg/kg/injection, schedule: Q02HX006 (ip), vehicle: Klucel (hydroxypropylcellulose) (HPC), higher = longer survival) 115 % of control; (endpoint: median survival time, dose: 5.18 mg/kg/injection, schedule: Q01DX007 (ip), vehicle: Klucel (hydroxypropylcellulose) (HPC), higher = longer survival) 102 % of control; (endpoint: median survival time, dose: 7.5 mg/kg/injection, schedule: Q01DX001 (ip), vehicle: Klucel (hydroxypropylcellulose) (HPC), higher = longer survival) 107 % of control; (endpoint: median survival time, dose: 7.5 mg/kg/injection, schedule: Q03HX004 (ip), vehicle: Klucel (hydroxypropylcellulose) (HPC), higher = longer survival) 115 % of control; (endpoint: median survival time, dose: 10.0 mg/kg/injection, schedule: Q02HX006 (ip), vehicle: Klucel (hydroxypropylcellulose) (HPC), higher = longer survival) 261 % of control. In addition, the T/C was 120 % of control (endpoint: median survival time, dose: 14.4 mg/kg/injection, schedule: Q01DX007 (ip), vehicle: Klucel (hydroxypropylcellulose) (HPC), higher = longer survival); 119 % of control (endpoint: median survival time, dose: 15.0 mg/kg/injection, schedule: Q01DX001 (ip), vehicle: Klucel (hydroxypropylcellulose) (HPC), higher = longer survival); 157 % of control (endpoint: median survival time, dose: 15.0 mg/kg/injection, schedule: Q03HX004 (ip), vehicle: Klucel (hydroxypropylcellulose) (HPC), higher = longer survival); 115 % of control (endpoint: median survival time, dose: 15.8 mg/kg/injection, schedule: Q01DX007 (ip), vehicle: Klucel (hydroxypropylcellulose) (HPC), higher = longer survival); 88 % of control (endpoint: median survival time, dose: 20.0 mg/kg/injection, schedule: Q02HX006 (ip), vehicle: Klucel (hydroxypropylcellulose) (HPC), higher = longer survival); 68 % of control (endpoint: median survival time, dose: 23.7 mg/kg/injection, schedule: Q01DX007 (ip), vehicle: Klucel (hydroxypropylcellulose) (HPC), higher = longer survival). Also, the T/C by setting is: (endpoint: median survival time, dose: 30.0 mg/kg/injection, schedule: Q01DX001 (ip), vehicle: Klucel (hydroxypropylcellulose) (HPC), higher = longer survival) 164 % of control; (endpoint: median survival time, dose: 30.0 mg/kg/injection, schedule: Q03HX004 (ip), vehicle: Klucel (hydroxypropylcellulose) (HPC), higher = longer survival) 326 % of control; (endpoint: median survival time, dose: 35.6 mg/kg/injection, schedule: Q01DX007 (ip), vehicle: Klucel (hydroxypropylcellulose) (HPC), higher = longer survival) 69 % of control; (endpoint: median survival time, dose: 53.3 mg/kg/injection, schedule: Q01DX007 (ip), vehicle: Klucel (hydroxypropylcellulose) (HPC), higher = longer survival) 60 % of control; (endpoint: median survival time, dose: 60.0 mg/kg/injection, schedule: Q01DX001 (ip), vehicle: Klucel (hydroxypropylcellulose) (HPC), higher = longer survival) 238 % of control; (endpoint: median survival time, dose: 80.0 mg/kg/injection, schedule: Q01DX007 (ip), vehicle: Klucel (hydroxypropylcellulose) (HPC), higher = longer survival) 55 % of control. For the same molecule, the T/C runs as follows: (endpoint: median tumor weight (est.), dose: 1.25 mg/kg/injection, schedule: Q01HX012 (ip), vehicle: Klucel (hydroxypropylcellulose) (HPC), higher = larger tumour) 59 % of control; (endpoint: median tumor weight (est.), dose: 1.25 mg/kg/injection, schedule: Q02HX006 (ip), vehicle: Klucel (hydroxypropylcellulose) (HPC), higher = larger tumour) 114 % of control; (endpoint: median tumor weight (est.), dose: 1.88 mg/kg/injection, schedule: Q03HX004 (ip), vehicle: Klucel (hydroxypropylcellulose) (HPC), higher = larger tumour) 61 % of control; (endpoint: median tumor weight (est.), dose: 2.5 mg/kg/injection, schedule: Q01HX012 (ip), vehicle: Klucel (hydroxypropylcellulose) (HPC), higher = larger tumour) 10 % of control; (endpoint: median tumor weight (est.), dose: 2.5 mg/kg/injection, schedule: Q02HX006 (ip), vehicle: Klucel (hydroxypropylcellulose) (HPC), higher = larger tumour) 67 % of control; (endpoint: median tumor weight (est.), dose: 3.75 mg/kg/injection, schedule: Q03HX004 (ip), vehicle: Klucel (hydroxypropylcellulose) (HPC), higher = larger tumour) 83 % of control. The T/C by setting is: (endpoint: median tumor weight (est.), dose: 5.0 mg/kg/injection, schedule: Q02HX006 (ip), vehicle: Klucel (hydroxypropylcellulose) (HPC), higher = larger tumour) 26 % of control; (endpoint: median tumor weight (est.), dose: 7.5 mg/kg/injection, schedule: Q01DX001 (ip), vehicle: Klucel (hydroxypropylcellulose) (HPC), higher = larger tumour) 110 % of control; (endpoint: median tumor weight (est.), dose: 7.5 mg/kg/injection, schedule: Q03HX004 (ip), vehicle: Klucel (hydroxypropylcellulose) (HPC), higher = larger tumour) 70 % of control; (endpoint: median tumor weight (est.), dose: 15.0 mg/kg/injection, schedule: Q01DX001 (ip), vehicle: Klucel (hydroxypropylcellulose) (HPC), higher = larger tumour) 70 % of control.

With `N=c1ccn2c(n1)OC1C(O)C(CO)OC12` (stereo not drawn), the T/C reads like this: (endpoint: median survival time, dose: 37.5 mg/kg/injection, schedule: Q01DX009 (ip), vehicle: saline, higher = longer survival) 95 % of control; (endpoint: median survival time, dose: 75.0 mg/kg/injection, schedule: Q01DX009 (ip), vehicle: saline, higher = longer survival) 100 % of control; (endpoint: median survival time, dose: 150.0 mg/kg/injection, schedule: Q01DX009 (ip), vehicle: saline, higher = longer survival) 101 % of control.

In the case of `COC(=O)[C@@]12OC[C@]34[C@H]([C@@H](O)[C@@H]1O)[C@@]1(C)CC(=O)C(O)=C(C)[C@@H]1C[C@H]3OC(=O)[C@H](OC(=O)/C=C(\C)C(C)C)[C@@H]24`, the T/C was 109 % of control (endpoint: median survival time, dose: 0.25 mg/kg/injection, schedule: Q01DX009 (ip), vehicle: saline with Tween-80, higher = longer survival); 96 % of control (endpoint: median survival time, dose: 0.5 mg/kg/injection, schedule: Q01DX009 (ip), vehicle: saline with Tween-80, higher = longer survival); 103 % of control (endpoint: median survival time, dose: 1.0 mg/kg/injection, schedule: Q01DX009 (ip), vehicle: saline with Tween-80, higher = longer survival); 121 % of control (endpoint: median survival time, dose: 1.1 mg/kg/injection, schedule: Q01DX009 (ip), vehicle: saline with Tween-80, higher = longer survival); 116 % of control (endpoint: median survival time, dose: 1.3 mg/kg/injection, schedule: Q04DX003 (ip), vehicle: saline with Tween-80, higher = longer survival); 103 % of control (endpoint: median survival time, dose: 2.0 mg/kg/injection, schedule: Q01DX001 (ip), vehicle: saline with Tween-80, higher = longer survival). Further, under “endpoint: median survival time, dose: 2.0 mg/kg/injection, schedule: Q04DX003 (ip), vehicle: saline with Tween-80, higher = longer survival”, the T/C was 112 % of control.

Consider `CC(C)(C)c1ccc(CN2CCN(C(c3ccccc3)c3ccc(Cl)cc3)CC2)cc1` (stereo not drawn), for which the T/C (endpoint: median survival time, dose: 22.5 micrograms/kg/injection, schedule: Q01DX009 (ip), vehicle: Klucel (hydroxypropylcellulose) (HPC), higher = longer survival) is 91 % of control and the T/C (endpoint: median survival time, dose: 45.0 micrograms/kg/injection, schedule: Q01DX009 (ip), vehicle: Klucel (hydroxypropylcellulose) (HPC), higher = longer survival) was 88 % of control.

Turning to `Cc1nc(N)nc(N)c1-c1ccc(Cl)c(Cl)c1`, the T/C runs as follows: (endpoint: median survival time, dose: 1.0 mg/kg/injection, schedule: Q02DX009 (ip), vehicle: Klucel (hydroxypropylcellulose) (HPC), higher = longer survival) 103 % of control; (endpoint: median survival time, dose: 2.0 mg/kg/injection, schedule: Q02DX009 (ip), vehicle: Klucel (hydroxypropylcellulose) (HPC), higher = longer survival) 99 % of control; (endpoint: median survival time, dose: 4.0 mg/kg/injection, schedule: Q02DX009 (ip), vehicle: Klucel (hydroxypropylcellulose) (HPC), higher = longer survival) 88 % of control; (endpoint: median survival time, dose: 8.0 mg/kg/injection, schedule: Q02DX009 (ip), vehicle: Klucel (hydroxypropylcellulose) (HPC), higher = longer survival) 112 % of control.

Turning to `CC/C(=C(/CC)c1ccc(O)cc1)c1ccc(O)cc1`, the T/C by setting is: (endpoint: median survival time, dose: 6.0 mg/kg/injection, schedule: Q01DX009 (ip), vehicle: Klucel (hydroxypropylcellulose) (HPC), higher = longer survival) 93 % of control; (endpoint: median survival time, dose: 12.0 mg/kg/injection, schedule: Q01DX009 (ip), vehicle: Klucel (hydroxypropylcellulose) (HPC), higher = longer survival) 100 % of control; (endpoint: median survival time, dose: 24.0 mg/kg/injection, schedule: Q01DX009 (ip), vehicle: Klucel (hydroxypropylcellulose) (HPC), higher = longer survival) 106 % of control; (endpoint: median survival time, dose: 48.0 mg/kg/injection, schedule: Q01DX009 (ip), vehicle: Klucel (hydroxypropylcellulose) (HPC), higher = longer survival) 97 % of control.

On to `Nc1ncnc2c1ncn2C1OC(CO)C(O)C1O` (stereo not drawn), for which the T/C was 115 % of control (endpoint: median survival time, dose: 60.0 mg/kg/injection, schedule: Q03HX024 (ip), vehicle: saline with Tween-80, higher = longer survival); 96 % of control (endpoint: median survival time, dose: 70.0 mg/kg/injection, schedule: Q03HX024 (ip), vehicle: saline with Tween-80, higher = longer survival); 105 % of control (endpoint: median survival time, dose: 80.0 mg/kg/injection, schedule: Q03HX024 (ip), vehicle: saline with Tween-80, higher = longer survival); 115 % of control (endpoint: median survival time, dose: 160.0 mg/kg/injection, schedule: Q03HX024 (ip), vehicle: saline with Tween-80, higher = longer survival); 121 % of control (endpoint: median survival time, dose: 240.0 mg/kg/injection, schedule: Q03HX024 (ip), vehicle: saline with Tween-80, higher = longer survival).

As for `CCCCC[C@H](O)/C=C/[C@H]1[C@H](O)CC(=O)[C@@H]1C/C=C\CCCC(=O)O`, the T/C is 98 % of control (endpoint: median survival time, dose: 0.75 mg/kg/injection, schedule: Q04DX002 (ip), vehicle: Klucel (hydroxypropylcellulose) (HPC), higher = longer survival); 118 % of control (endpoint: median survival time, dose: 3.0 mg/kg/injection, schedule: Q04DX002 (ip), vehicle: Klucel (hydroxypropylcellulose) (HPC), higher = longer survival); 122 % of control (endpoint: median survival time, dose: 6.0 mg/kg/injection, schedule: Q04DX002 (ip), vehicle: Klucel (hydroxypropylcellulose) (HPC), higher = longer survival); 87 % of control (endpoint: median survival time, dose: 12.5 mg/kg/injection, schedule: Q04DX002 (ip), vehicle: saline with Tween-80, higher = longer survival).
